In the experiment the target is DnaK (Escherichia coli, UniProt P0A6Y8). As to the kind of experiment: DnaK Inhibition Assay (DnaK induced refolding of denatured firefly luciferase). The experiment is classed as biochemical, E. coli. The following applies: DnaK 200 nM, DnaJ 100 nM, GrpE 400 nM. On the procedure: Inhibition of the bacterial DnaK chaperone system may be evaluated by inhibition of the DnaK induced refolding of denatured firefly luciferase. More specifically, firefly luciferase is denatured by treatment with 8N guanidium hydrochloride at room temperature for 30 mins and then 5° C. for 1 h. After dilution into cold MOPS buffer augmented with ATP (2.5 mM) and DTT (12.5 mM) and standing for a further hour, the denatured luciferase is refolded by addition to a mixture of chaperone proteins in MOPS buffer, resulting in a reaction mixture containing denatured luciferase (24 nM), DnaK (200 nM), DnaJ (100 nM) and GrpE (400 nM). The extent of refolding is determined by addition of a luciferase substrate and measurement of the emitted chemoluminescence. In this format the substrate is the commercially available luciferase “Steady-Glo” reagent from Promega, Inc. Inhibition of DnaK induced refolding is determined by premixing the chaperone proteins with the test agent at concentrations of test agent ranging from 1-100 μg/mL. The extent of refolding is compared to that with no test reagent, and the IC50 is estimated by fitting the data to a standard sigmoidal dose-response curve.
Chain of DnaK (P0A6Y8 2-638): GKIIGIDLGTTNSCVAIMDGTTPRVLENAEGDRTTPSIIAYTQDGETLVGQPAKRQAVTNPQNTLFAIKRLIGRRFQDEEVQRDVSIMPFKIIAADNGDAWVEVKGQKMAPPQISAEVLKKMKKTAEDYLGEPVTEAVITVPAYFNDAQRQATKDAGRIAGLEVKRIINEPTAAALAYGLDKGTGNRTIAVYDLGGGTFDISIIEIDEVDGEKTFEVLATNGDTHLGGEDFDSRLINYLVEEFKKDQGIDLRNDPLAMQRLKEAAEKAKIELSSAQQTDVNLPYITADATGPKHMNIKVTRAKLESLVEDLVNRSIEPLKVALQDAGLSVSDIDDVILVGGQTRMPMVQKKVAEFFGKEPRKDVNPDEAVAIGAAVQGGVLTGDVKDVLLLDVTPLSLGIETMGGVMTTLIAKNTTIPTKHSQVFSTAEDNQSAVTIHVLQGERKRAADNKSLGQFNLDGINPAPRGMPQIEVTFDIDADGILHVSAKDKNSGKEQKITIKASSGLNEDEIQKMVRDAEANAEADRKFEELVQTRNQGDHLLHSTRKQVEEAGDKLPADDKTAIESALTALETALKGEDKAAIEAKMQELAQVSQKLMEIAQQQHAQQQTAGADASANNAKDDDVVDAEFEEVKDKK
Inhibition of the bacterial DnaK chaperone system was evaluated by inhibition of the DnaK induced refolding of denatured firefly luciferase. Firefly luciferase was denatured by treatment with 8N guanidium hydrochloride at room temperature for 30 mins and then 5° C. for 1 h. After dilution into cold MOPS buffer augmented with ATP (2.5 mM) and DTT (12.5 mM) and standing for a further hour, the denatured luciferase was refolded by addition to a mixture of chaperone proteins in MOPS buffer, resulting in a reaction mixture containing denatured luciferase (24 nM), DnaK (200 nM), DnaJ (100 nM) and GrpE (400 nM). The extent of refolding was determined by addition of a luciferase substrate and measurement of the emitted chemoluminescence. In this format the substrate is the commercially available luciferase “Steady-Glo” reagent from Promega, Inc. Inhibition of DnaK induced refolding was determined by premixing the chaperone proteins with the test agent at concentrations of test agent ranging from 1-100 μg/mL. The extent of refolding was compared to that with no test reagent, and the IC50 was estimated by fitting the data to a standard sigmoidal dose-response curve.
IC50 is defined as the concentration in μM at which 50% inhibition of DnaK induced refolding of denatured firefly luciferase occurs.

[1] abbreviates: read-out: DnaK IC50(μg/ml) (converted).

Where a name gives a salt, the structure may show the parent alone. Read-outs that look alike come from different tables or passages of the source. Non-standard residues stand in square brackets, D forms with d. Residues, ends and D or L forms follow the SMILES beside them. *: point of attachment. Phe(4-NH2) = Nc1ccc(C[C@H](N)C(=O)O)cc1; 2Nal = N[C@@H](Cc1ccc2ccccc2c1)C(=O)O; Hydrocinnamoyl = O=C(CCc1ccccc1)*; NH(CH2)3Ph = c1ccc(CCCN*)cc1; Orn = NCCC[C@H](N)C(=O)O; Piperidide = C1CCN(*)CC1; Cbz = O=C(OCc1ccccc1)*; Boc = CC(C)(C)OC(=O)*; Bn = c1ccc(C*)cc1; NHBu = CCCCN*

As to `CC(=O)N[C@@H](Cc1ccc(O)cc1)C(=O)N[C@@H](CC(C)C)C(=O)N1CCC[C@H]1C(=O)N[C@@H](CCCNC(=N)N)C(=O)N1CCCCC1` [Structure 4, Ac-Tyr-Leu-Pro-Arg-N(CH2)5.TFA] (Ac-YLPR-Piperidide), the IC50 runs as follows: (read-out: DnaK IC50) 3 µM; under setting [1], 6.09 µM.

`CC(=O)N[C@@H](Cc1ccc(OCc2ccccc2)cc1)C(=O)N[C@@H](CC(C)C)C(=O)N1CCC[C@H]1C(=O)NCCCCN` [Structure 5, Ac-Tyr(Bzl)-Leu-Pro-NH(CH2)4NH2.TFA]: the IC50 by setting is: (read-out: DnaK IC50) 45 µM; under setting [1], 106 µM.

For the compound `COC(=O)[C@@H]1CCCN1C(=O)[C@H](CC(C)C)NC(=O)[C@H](Cc1ccc(NC(=O)OCc2ccccc2)cc1)NC(C)=O` [Structure 6, Ac-4-(NHCbz)Phe-Leu-Pro-OMe] (Ac-[Phe(4-NH2)](Cbz)-Leu-Pro-OMe), the IC50 runs as follows: (read-out: DnaK IC50) 147 µM; under setting [1], 420 µM.

For the compound `CC(=O)N[C@@H](Cc1ccc(NC(=O)OCc2ccccc2)cc1)C(=O)N[C@@H](CC(C)C)C(=O)N1CCC[C@H]1C(=O)O` [Structure 7, Ac-4-(NHCbz)Phe-Leu-Pro-OH] (Ac-[Phe(4-NH2)](Cbz)-Leu-Pro-OH), the IC50 is, setting by setting: (read-out: DnaK IC50) 72 µM; under setting [1], 224 µM.

With `COC(=O)[C@@H]1CCCN1C(=O)[C@H](CC(C)C)NC(=O)[C@H](Cc1ccc2ccccc2c1)NC(C)=O` [Structure 8, Ac-2-Nal-Leu-Pro-OMe] (Ac-[2Nal]-Leu-Pro-OMe), the IC50 is, setting by setting: (read-out: DnaK IC50) 30 µM; under setting [1], 127 µM.

On to `CC(=O)N[C@@H](Cc1ccc2ccccc2c1)C(=O)N[C@@H](CC(C)C)C(=O)N1CCC[C@H]1C(=O)O` [Structure 9] (Ac-[2Nal]-Leu-Pro-OH), for which the IC50 reads like this: (read-out: DnaK IC50) 62 µM; under setting [1], 282 µM.

As for `CC(C)C[C@H](NC(=O)[C@H](Cc1ccc(O)cc1)NC(=O)OC(C)(C)C)C(=O)N1CCC[C@H]1C(=O)N[C@@H](CCCNC(=N)N)C(=O)N1CCC[C@H]1C(=O)NCCCc1ccccc1` [Structure 12, Boc-Tyr-Leu-Pro-Arg-Pro-NH(CH2)3Ph] (Boc-YLPRP-{NH(CH2)3Ph}), the IC50 (read-out: DnaK IC50) was 11 µM and the IC50 under setting [1] is 12.8 µM.

For `CC(C)C[C@H](NC(=O)CCc1ccccc1)C(=O)N1CCC[C@H]1C(=O)N[C@@H](CCCNC(=N)N)C(=O)N1CCCCC1` [Structure 13, Ph(CH2)2C(O)-Leu-Pro-Arg-N(CH2)5] (Hydrocinnamoyl-Leu-Pro-Arg-Piperidide), the IC50 (read-out: DnaK IC50) turned out to be 12 µM and the IC50 under setting [1] was 29.1 µM.

For `CC(=O)N[C@@H](Cc1ccc(OCc2ccccc2)cc1)C(=O)N[C@@H](CC(C)C)C(=O)N1CCC[C@H]1C(=O)N[C@@H](CCCNC(=N)N)C(=O)N1CCCCC1` [Structure 14] (Ac-Y(Bn)LPR-Piperidide), the IC50 is, setting by setting: (read-out: DnaK IC50) 25 µM; under setting [1], 37.5 µM.

Consider `CCCCNC(=O)[C@@H]1CCCN1C(=O)[C@H](CCCNC(=N)N)NC(=O)[C@@H]1CCCN1C(=O)[C@H](CC(C)C)NC(=O)[C@H](Cc1ccc(O)cc1)NC(C)=O` [Structure 15, Ac-Tyr-Leu-Pro-Arg-Pro-NHBu.TFA] (Ac-YLPRP-NHBu), for which the IC50 reads like this: (read-out: DnaK IC50) 24 µM; under setting [1], 39.1 µM.

With `CC(=O)N[C@@H](Cc1ccc(O)cc1)C(=O)N[C@@H](CC(C)C)C(=O)N1CCC[C@H]1C(=O)N[C@@H](CCCNC(=N)N)C(=O)N1CCC[C@H]1C(=O)NCCCc1ccccc1` [Structure 16, Ac-Tyr-Leu-Pro-Arg-Pro-NH(CH2)3Ph.TFA] (Ac-YLPRP-{NH(CH2)3Ph}), the IC50 runs as follows: (read-out: DnaK IC50) 24 µM; under setting [1], 32.3 µM.

On to `CC(=O)N[C@@H](Cc1ccc(OCc2ccccc2)cc1)C(=O)N[C@@H](CC(C)C)C(=O)N1CCC[C@H]1C(=O)N[C@@H](CCCNC(=O)OC(C)(C)C)C(=O)N1CCC[C@H]1C(=O)NCCCc1ccccc1` [Structure 17, Ac-Tyr(Bzl)-Leu-Pro-Orn(Boc)-Pro-NH(CH2)3Ph] (Ac-Y(Bn)LP[Orn](Boc)P-{NH(CH2)3Ph}), for which the IC50 runs as follows: (read-out: DnaK IC50) 21 µM; under setting [1], 20 µM.

The record behind these values is patent US20100087466A1, “NOVEL SMALL MOLECULE DNAK INHIBITORS” (priority 2008, published 2010).
